Earlier results, collected in patent US20090155358A1, “PHARMACEUTICAL COMPOSITIONS OF SHORT-ACTING HYPNOTIC AGENTS IN MODIFIED-RELEASE FORMS AND THE […] PREPARE THE MENTIONED FORMULATION” (Gador S.A., priority 2005, published 2009).
Where a name gives a salt, the structure may show the parent alone.

Experiments:
BZ1 receptor = target: T1, BZ1 receptor (Homo sapiens, UniProt P14867+P18507); conditions: in vitro
T1 sequence (P14867 28-456): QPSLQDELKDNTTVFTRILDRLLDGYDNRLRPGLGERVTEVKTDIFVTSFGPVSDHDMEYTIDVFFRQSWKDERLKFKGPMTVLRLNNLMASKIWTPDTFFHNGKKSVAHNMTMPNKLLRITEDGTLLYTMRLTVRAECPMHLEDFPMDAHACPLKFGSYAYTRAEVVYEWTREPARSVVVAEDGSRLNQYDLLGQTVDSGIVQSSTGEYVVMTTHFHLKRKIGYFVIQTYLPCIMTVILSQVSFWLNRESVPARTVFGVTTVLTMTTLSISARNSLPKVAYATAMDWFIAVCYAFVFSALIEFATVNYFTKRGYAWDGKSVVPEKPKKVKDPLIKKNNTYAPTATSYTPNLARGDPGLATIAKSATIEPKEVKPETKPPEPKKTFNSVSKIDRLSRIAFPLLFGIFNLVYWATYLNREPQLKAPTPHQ
T1 sequence (P18507 40-467 limits assumed): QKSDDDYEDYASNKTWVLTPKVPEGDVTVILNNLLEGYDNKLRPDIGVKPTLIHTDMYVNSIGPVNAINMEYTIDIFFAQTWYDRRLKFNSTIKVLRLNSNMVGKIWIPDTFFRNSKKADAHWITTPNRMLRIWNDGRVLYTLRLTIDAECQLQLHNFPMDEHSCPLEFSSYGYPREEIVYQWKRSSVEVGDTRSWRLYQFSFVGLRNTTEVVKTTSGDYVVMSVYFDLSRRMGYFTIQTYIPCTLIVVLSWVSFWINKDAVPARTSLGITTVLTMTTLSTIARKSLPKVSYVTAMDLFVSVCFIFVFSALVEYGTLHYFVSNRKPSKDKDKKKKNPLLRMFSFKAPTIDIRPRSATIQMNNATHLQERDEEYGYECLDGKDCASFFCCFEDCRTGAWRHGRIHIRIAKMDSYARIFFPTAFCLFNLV
T1 sequence (P47870 25-512 partner limits assumed): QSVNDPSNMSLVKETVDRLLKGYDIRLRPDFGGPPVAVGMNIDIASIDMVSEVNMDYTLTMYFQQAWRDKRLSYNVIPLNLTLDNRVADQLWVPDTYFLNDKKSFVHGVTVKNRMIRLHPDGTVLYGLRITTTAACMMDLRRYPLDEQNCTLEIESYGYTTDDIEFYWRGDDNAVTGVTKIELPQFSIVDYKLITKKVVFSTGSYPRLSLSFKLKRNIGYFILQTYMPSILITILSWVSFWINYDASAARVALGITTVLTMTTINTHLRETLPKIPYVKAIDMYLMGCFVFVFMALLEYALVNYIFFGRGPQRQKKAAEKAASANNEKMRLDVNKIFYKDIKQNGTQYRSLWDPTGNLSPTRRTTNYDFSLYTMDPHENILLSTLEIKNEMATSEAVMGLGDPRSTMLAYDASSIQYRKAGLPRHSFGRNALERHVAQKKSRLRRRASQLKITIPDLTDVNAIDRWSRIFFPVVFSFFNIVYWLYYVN

SMILES	solubility in alcohol (alcohol)	solubility in propylene glycol (propylene glycol)	solubility in water (water)	affinity for BZ1 receptor, subunits α1/α5 (BZ1 receptor)
Cc1ccc(-c2nc3ccc(C)cn3c2CC(=O)N(C)C)cc1 [Zolpidem tartrate, N,N,6-trimethyl-2-p-toyl-imidazo[1,2-a]pyridine-3-acetamide]	sparingly soluble	sparingly soluble	sparingly soluble	
Cc1ccc(-c2nc3ccc(C)cn3c2CC(=O)N(C)C)cc1 [Zolpidem, N,N,6-trimethyl-2-p-toyl-imidazo[1,2-a]pyridine-3-acetamide]				large affinity
